Assays:
[1] = test system: Dengue virus; assay: Plaque assay for anti-dengue viral activity; type: cell-based; details: for EC50: Dengue virus, read-out: EC50 in virus replication; for virus titer: BHK 21 cells, MOI 1, 48 h, no-treatment 2×10^5
Description: The efficacy of the compounds was also examined in cell-based assays performed in mammalian cells. Mammalian cells are the host for replication of the virus; a compound added to the growth medium of the mammalian cell in which a replicon RNA or dengue virus is replicating, the compound of interest could permeate the cell and interfere with the replication process. If there is a quantitative read-out of replication efficiency, the potency of the inhibitor compound could be evaluated in a quantifiable manner. There are two types of quantifiable assays available both employing mammalian cells; the first is the Baby Hamster Kidney (BHK) or monkey kidney (Vero) cells harboring DENV-2 or WNV replicon RNA, respectively, in a continuously replicating state and these are “stable replicon-expressing” cells. The second assay is infectivity assays in which mammalian cells are infected with DENV and the compound of interest is added at various concentrations and incubated. The inhibition of infectivity of the virus by the compound is measured by the extent of reduction of the titer of virus determined by plaque assay.
BHK 21 cells (1×10^5) were plated onto each well of 12 well-cell culture plate. […] One hour later, the Dengue virus was added (MOI:1). After an additional 48 hours, the supernatant was collected and tested by the plaque assay.
LLC-MK2 cells were plated at 2.5×10^5 cells per well in 6-well plates containing 2 ml culture medium and incubated overnight. Serially diluted supernatants from BHK21 cells treated with compounds at different concentrations as described above were incubated with cells in paired wells of six-well plates for 2 h. Cells were overlaid with 1× media containing 0.5% Sea-Kem GTG agarose (FMC Bioproducts; Philadelphia, Pa.) and were incubated for 7 days at 37° C. and visualized by staining with 0.01% neutral red solution overnight.

[2] = target: T1, DENV-2 protease (Dengue virus type 2, UniProt P14340); assay: In vitro protease assay, DENV-2 NS2B-NS3pro; type: biochemical, Dengue virus serotype 2; details: for inhibition at 10 µM: 10 μM inhibitor, read-out: % Inhib. DENV 2 Protease at 10 μM; for inhibition at 25 µM: 25 μM inhibitor, read-out: % Inhib. DENV 2 Protease at 25 μM; for IC50: substrate Bz-Nle-Lys-Arg-Arg-AMC, triplicate, read-out: IC50 DENV2
T1 construct: expression plasmids pQE30-NS2BH(QR)-NS3pro and WNV clone 107, respectively; made in house; host or cells: E. coli TOP10F' cells
Protocol: (§1) DENV-2 and WNV proteases were expressed from 2 L cultures of TOP10F′ cells (Invitrogen; Carlsbad, Calif.) transformed with expression plasmids pQE30-NS2BH(QR)-NS3pro and WNV clone 107, respectively. Cultures were grown in LB medium supplemented with ampicillin (100 μg/mL) and 0.1% glucose at 37° C. until the OD600 reached 0.6-0.7. The medium was then replaced with fresh LB-ampicillin with 1 mM IPTG. Expression was done at 20° C. for 16 h. Cells were then pelleted and either frozen or used immediately for purification using a Talon metal affinity resin (Clontech; Mountain View, Calif.).
(§2) A reaction mixture was prepared containing 200 mM Tris pH 9.5, 30% glycerol, 0.1% CHAPS detergent (to prevent non-specific aggregation of compounds), 50 nM DENV2QRpro enzyme and 10 μM Bz-Nle-Lys-Arg-Arg-AMC in each 30 μL reaction in duplicate 384-well plates. Aprotinin (2 μM) was used as a positive control. Compounds which inhibited the cleavage of the substrate by at least 50% were considered as positive hits. From the list of positive compounds, the highest scoring hits were selected for further analysis. […] Out of the 29 compounds, only 22 dissolved in DMSO at 5 mM. The activities of the 22 compounds were tested against DENV-2 and WNV proteases at 10 and 25 μM of the inhibitor concentration. […] A control containing only 2% DMSO and the substrate was used to achieve the minimum value of relative fluorescence units (RFU) for background subtraction. Compounds that reduced the protease activity by ≥70% were selected for further analysis.
(§3) Compound I, Compound II, Compound III, Compound IV, Compound V, Compound VI, and Compound VII were analyzed by in vitro protease assays. The compounds were tested for DENV-2 and WNV protease inhibition activity. All assays were done in triplicate in black 96-well plates. Protease activity experiments were performed in vitro using purified viral protease NS2B-N53-pro from DENV-2 or WNV. The reaction mixture of 100 μL/well contained 200 mM Tris pH 9.5, 30% glycerol, 27 nM WNV, 2% DMSO and fluorogenic tetra-peptide substrate Bz-Nle-Lys-Arg-Arg-AMC at concentrations that varied (0.05, 0.1, 0.5, 1, 2, 5, 10, and 25 μM). The percent activities after 30 min versus inhibitor concentration were plotted in GraphPad Prism v5.04 using the four-parameter nonlinear regression (Hill slope method).
(§4) In all assays, the inhibitor-enzyme complex was allowed to form by pre-incubation for 15 min at room temperature (RT) before addition of the substrate. After 5 min incubation, reactions were monitored by the release of free AMC, every 1.5 min for 30 min. The fluorescence emission was recorded at 465 nm following excitation at 385 nm using the Spectra Max Gemini EM (Molecular Devices; Silicon Valley, Calif.). The relative fluorescence units (RFU) were converted to absolute AMC product concentrations using Excel, where the data were transformed using the slope from the linear regression of the AMC calibration curve generated from the fluorescence values versus micromolar (μM) concentrations of free AMC. RFUs, obtained in a standard assay in the absence of inhibitors, were taken as 100% protease activity (or 0% inhibition), the background value (no protease) as 0% activity (or 100% inhibition). Kinetic values were determined using Microsoft Excel and GraphPad Prism 5 (La Jolla, Calif.).

[3] = target: T2, WNV protease (West Nile virus, UniProt Q9Q6P4); assay: In vitro protease assay, WNV NS2B-NS3pro; type: biochemical; details: for inhibition at 10 µM: read-out: % Inhib. WNV Protease at 10 μM; for inhibition at 25 µM: read-out: % Inhib. WNV Protease at 25 μM
T2 construct: purified viral protease NS2B-N53-pro from DENV-2 or WNV; made in house; host or cells: E. coli TOP10F' cells
Protocol: as §1, §2, §3, §4

[4] = target: DENV-4 protease (Dengue virus type 4, UniProt P09866); assay: DENV-4 protease inhibition; type: biochemical, Dengue virus serotype 4
[5] = Cell viability (CellTiter Glo) in BHK21-DENV2 cells; type: cell-based; details: hamster, ATP production
Protocol: (§5) Both drug efficacy and cytotoxicity were measured using the same experimental plate. Prior to compound treatment, BHK21-DENV2 or Vero-WNV cells at […] were plated in 96-well plates with each well containing 10^4 cells. After 24 h incubation, the medium was replaced with 100 μL fresh medium containing different compound concentrations (0.5, 1, 2, 5, 10, and 25 μM) in triplicate wells. Cells were incubated again for 24 h. Cells were then washed with PBS and the luminescence signal from Renilla luciferase activity was read using the Renilla luciferase assay kit (Promega Corp; Fitchburg, Wis.) using a luminometer (Berthold Technologies, Inc.; Oak Ridge, Tenn.). Cell viability (CC50) was measured as amount of ATP production in viable (live) cells using a chemiluminescence detection method (CellTiter Glo kit from Promega Corp) using the Model LB960 luminometer (Berthold Technologies). The EC50 and CC50 values of selected compounds were calculated similar to IC50s using GraphPad Prism v5. Experiments were done in duplicates.
Following a similar protocol, the EC50 and CC50 values of Compounds III and V for inhibition of DENV2 replicon-expressing BHK21 cells and cell viability of those cells treated with Compounds III and V were determined.

[6] = test system: WNV replicon-expressing Vero cells; assay: WNV replicon assay (Renilla luciferase); type: cell-based; details: West Nile virus, 24 h
Description: (§6) The efficacy of the compounds was also examined in cell-based assays performed in mammalian cells. Mammalian cells are the host for replication of the virus; a compound added to the growth medium of the mammalian cell in which a replicon RNA or dengue virus is replicating, the compound of interest could permeate the cell and interfere with the replication process. If there is a quantitative read-out of replication efficiency, the potency of the inhibitor compound could be evaluated in a quantifiable manner. There are two types of quantifiable assays available both employing mammalian cells; the first is the Baby Hamster Kidney (BHK) or monkey kidney (Vero) cells harboring DENV-2 or WNV replicon RNA, respectively, in a continuously replicating state and these are “stable replicon-expressing” cells. […] The inhibition of infectivity of the virus by the compound is measured by the extent of reduction of the titer of virus determined by plaque assay.
(§7) Both drug efficacy and cytotoxicity were measured using the same experimental plate. […] Cells were then washed with PBS and the luminescence signal from Renilla luciferase activity was read using the Renilla luciferase assay kit (Promega Corp; Fitchburg, Wis.) using a luminometer (Berthold Technologies, Inc.; Oak Ridge, Tenn.). […] The EC50 and CC50 values of selected compounds were calculated similar to IC50s using GraphPad Prism v5. […]

[7] = test system: DENV2 replicon-expressing BHK21 cells; assay: DENV2 replicon assay (Renilla luciferase); type: cell-based; details: Dengue virus, DENV2, BHK-21
Description: as §6, §7

[8] = target: DENV-1 protease (Dengue virus type 1, UniProt P17763); assay: DENV-1 protease inhibition; type: biochemical, Dengue virus serotype 1
[9] = Cell viability (CellTiter Glo) in Vero-WNV cells; type: cell-based; details: monkey, ATP production
Protocol: as §5

[10] = target: DENV-3 protease (Dengue virus type 3, UniProt P27915); assay: DENV-3 protease inhibition; type: biochemical, Dengue virus serotype 3
Sequence of DENV-3 protease (P27915 1474-1651): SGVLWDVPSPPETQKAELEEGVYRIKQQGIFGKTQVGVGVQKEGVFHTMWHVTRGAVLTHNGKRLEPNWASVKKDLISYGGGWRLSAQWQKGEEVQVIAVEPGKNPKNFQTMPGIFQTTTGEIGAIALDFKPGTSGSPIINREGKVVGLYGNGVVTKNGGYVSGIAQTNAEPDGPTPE
Sequence of DENV-3 protease (P27915 1392-1438): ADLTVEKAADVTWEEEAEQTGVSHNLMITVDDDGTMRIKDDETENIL

T2 sequence (Q9Q6P4 1506-1683): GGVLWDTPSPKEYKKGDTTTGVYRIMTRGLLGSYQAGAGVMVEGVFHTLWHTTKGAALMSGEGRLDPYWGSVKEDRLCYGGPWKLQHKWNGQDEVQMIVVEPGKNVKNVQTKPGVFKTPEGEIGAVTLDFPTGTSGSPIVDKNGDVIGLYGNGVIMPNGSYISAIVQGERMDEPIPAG
T2 sequence (Q9Q6P4 1375-1505): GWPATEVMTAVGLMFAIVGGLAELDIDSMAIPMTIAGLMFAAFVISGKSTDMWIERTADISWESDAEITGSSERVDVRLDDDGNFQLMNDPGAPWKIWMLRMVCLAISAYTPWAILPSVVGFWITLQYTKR
T1 sequence (P14340 1476-1653): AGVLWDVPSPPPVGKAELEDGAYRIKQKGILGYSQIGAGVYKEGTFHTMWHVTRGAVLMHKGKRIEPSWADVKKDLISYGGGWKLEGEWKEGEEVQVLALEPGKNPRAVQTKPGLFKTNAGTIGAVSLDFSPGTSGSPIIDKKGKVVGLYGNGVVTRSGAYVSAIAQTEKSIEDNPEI
Sequence of DENV-1 protease (P17763 1394-1440): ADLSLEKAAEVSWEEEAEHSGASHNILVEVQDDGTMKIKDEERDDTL
Sequence of DENV-1 protease (P17763 1476-1653): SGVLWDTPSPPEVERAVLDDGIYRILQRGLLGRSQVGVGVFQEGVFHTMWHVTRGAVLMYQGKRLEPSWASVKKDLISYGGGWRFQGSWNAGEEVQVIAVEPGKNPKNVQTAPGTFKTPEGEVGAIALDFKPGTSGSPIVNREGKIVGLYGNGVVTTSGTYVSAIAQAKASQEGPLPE
Sequence of DENV-4 protease (P09866 1475-1652): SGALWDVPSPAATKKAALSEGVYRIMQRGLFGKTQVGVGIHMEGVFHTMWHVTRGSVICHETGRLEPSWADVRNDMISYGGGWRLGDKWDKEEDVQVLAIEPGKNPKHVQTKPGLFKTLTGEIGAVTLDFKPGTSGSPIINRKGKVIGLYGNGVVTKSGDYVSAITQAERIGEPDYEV
Sequence of DENV-4 protease (P09866 1393-1439): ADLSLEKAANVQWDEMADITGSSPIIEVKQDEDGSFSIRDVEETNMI

Compound: Cc1sc2nc(SCC(=O)c3ccc(O)c(O)c3)[nH]c(=O)c2c1C [Compound II]
- inhibition of the virus titer ([1]; 20 μM compound): did not show a significant inhibition
- inhibition at 10 µM [2]: 57%
- inhibition at 25 µM [2]: 92%
- IC50 [2]: 8.8 µM
- IC50 [3]: 9.7 µM
- inhibition at 10 µM [3]: 45%
- inhibition at 25 µM [3]: 92%

Compound: O=c1c(Oc2ccccc2)c(C(F)(F)F)oc2c(O)c(O)ccc12 [Compound IV]
- EC50 [1]: < 20 µM
- inhibition at 10 µM [2]: 63%
- inhibition at 25 µM [2]: 82%
- IC50 [2]: 8.5 µM
- IC50 [3]: 6.7 µM
- inhibition at 10 µM [3]: 71%
- inhibition at 25 µM [3]: 95%

Compound: O=C(OC[C@H]1OC(OC(=O)c2cc(O)c(O)c(OC(=O)c3cc(O)c(O)c(O)c3)c2)C(OC(=O)c2cc(O)c(O)c(OC(=O)c3cc(O)c(O)c(O)c3)c2)[C@@H](OC(=O)c2cc(O)c(O)c(OC(=O)c3cc(O)c(O)c(O)c3)c2)C1OC(=O)c1cc(O)c(O)c(OC(=O)c2cc(O)c(O)c(O)c2)c1)c1cc(O)c(O)c(OC(=O)c2cc(O)c(O)c(O)c2)c1 (some centres unmarked) [Compound VII, Tannic acid, reference compound]
- EC50 [1]: < 5 µM
- inhibition at 10 µM [2]: 99%
- inhibition at 25 µM [2]: 101%
- IC50 [2]: 0.768 µM
- IC50 [3]: 0.312 µM
- inhibition at 10 µM [3]: 98%
- inhibition at 25 µM [3]: 96%

Compound: Cc1ccc(C(=O)c2cc(O)c(O)c([N+](=O)[O-])c2)cc1 [Compound VI, Tolcapone, reference compound]
- fold reduction of virus titer ([1]; 5 μM compound): greater than 100 fold
- EC50 [1]: < 5 µM
- inhibition at 10 µM [2]: 90%
- inhibition at 25 µM [2]: 92%
- IC50 [2]: 0.758 µM
- IC50 [3]: 0.68 µM
- inhibition at 10 µM [3]: 99%
- inhibition at 25 µM [3]: 67%

Compound: Cc1ccc(C2=NC(=O)/C(=C/c3cc(O)c(O)c(Br)c3)S2)cc1 [Compound III]
- IC50 [4]: 3.92 ± 0.05 µM
- CC50 at 24 h [5]: 407 µM
- EC50 [6]: 3.7 µM
- fold reduction of virus titer ([1]; 10 μM compound): 3.3 fold
- virus titer ([1]; 10 μM compound): 6×10^4 PFU/ml
- fold reduction of virus titer ([1]; 15 μM compound): 5 fold
- virus titer ([1]; 15 μM compound): 4×10^4 PFU/ml
- fold reduction of virus titer ([1]; 20 μM compound): 100 fold
- virus titer ([1]; 20 μM compound): 2×10^3 PFU/ml
- EC50 [1]: < 10 µM
- EC50 [7]: 7.2 µM
- IC50 [8]: 5.99 ± 1.4 µM
- inhibition at 10 µM [2]: 96%
- inhibition at 25 µM [2]: 94%
- IC50 [2]: 3.4 µM
- CC50 at 24 h [9]: 130 µM
- IC50 [3]: 1.3 µM
- inhibition at 10 µM [3]: 98%
- inhibition at 25 µM [3]: 98%
- IC50 [10]: 4.8 ± 1.1 µM

Compound: CCOC(=O)c1oc2c(O)c(O)ccc2c(=O)c1-c1cnn(-c2ccccc2)c1 [Compound V]
- IC50 [4]: 5.32 ± 0.6 µM
- CC50 at 24 h [5]: 202 µM
- EC50 [6]: 9.7 µM
- EC50 [7]: 11.7 µM
- IC50 [8]: 6.4 ± 1.2 µM
- inhibition at 10 µM [2]: 75%
- inhibition at 25 µM [2]: 86%
- IC50 [2]: 4.8 µM
- CC50 at 24 h [9]: 168 µM
- IC50 [3]: 4.3 µM
- inhibition at 10 µM [3]: 75%
- inhibition at 25 µM [3]: 95%
- IC50 [10]: 5 ± 1.4 µM

Compound: COCc1cc(C)nc(SCC(=O)c2ccc(O)c(O)c2)c1C#N [Compound I]
- inhibition at 10 µM [2]: 51%
- inhibition at 25 µM [2]: 89%
- IC50 [2]: 10.5 µM
- IC50 [3]: 9 µM
- inhibition at 10 µM [3]: 54%
- inhibition at 25 µM [3]: 95%
